Test results published in patent US8088918B2, “Noncardiotoxic pharmaceutical compounds” (Williamsburg Holdings LLC, priority 2004, dated 2012).

Key:
[1] = Stability testing in simulated gastric fluids; conditions: 10 μM, saline pH approximately 1 plus pepsin
[2] = Stability testing of prodrugs in human plasma; format: in vitro ADME; conditions: 10 μM, ca. 37° C.
Description: Pooled human plasma was obtained from Bioreclamation (East Meadow, N.Y.) by collection into sodium EDTA as the anticoagulant, and was stored at ca −20° C. prior to use. Prior to use, the plasma defrosted and was spun at ca. 3000 rpm for 5 minutes to remove any precipitate. The pH of the plasma was adjusted to pH 7.4 by careful addition of NaH2PO4 buffer.
Plasma stability was assessed by incubation of 10 μM of each compound prepared in Examples 1-5 with human plasma, in duplicate, at ca. 37° C. with shaking. Each compound prepared in Examples 1-5 was also incubated at 10 μM in PBS as a control for compound heat stability. Aliquots were removed at 0, 0.5, 1 and 2 hours and stored at −20° C. until analysis.
For analysis, plasma samples were extracted in 1 part acetonitrile and isolation of the supernatant. Analysis of each compound prepared in Examples 1-5 in plasma extracts was conducted by an LC-MS method at each time interval and quantification was achieved by comparison of the response due to the sample to that of a three point standard curve. Appearance of the parent drug the hydroxymetabolites were also monitored at each time interval. The % degradation following incubation at each time point was calculated by comparison of the parent concentration to that at 0 minutes.

[3] = Metabolic stability, microsomal incubations without inhibitor; format: in vitro ADME; conditions: 10 μM, 0.5 mg/mL microsomal protein
Description: (§1) The metabolic stability of each compound prepared in Examples 1-5 was assessed in microsomal preparations obtained from BD Gentest (Woburn, Mass.).
(§2) The metabolic stability of each compound prepared in Examples 1-5 was assessed in duplicate by incubation of 10 μM compound with 0.5 mg/mL microsomal protein, 1 mM in 0.1 M phosphate buffer, pH 7.4 in the presence and absence of a CYP3A4 inhibitor (ketoconazole). The reaction mixture was pre-incubated, in the absence of the microsomes, at ca. 37° C. for 5 minutes, followed by initiation of the incubation by the addition of microsomal protein and maintained at ca. 37° C. for a further 0, 30 and 60 minutes. After the appropriate incubation time, the mixtures were quenched by the addition of one volume of acetonitrile and the supernatant was isolated by centrifugation. Positive control incubations (7-ethoxycoumarin) were performed in the same manner as the compounds from Examples 1-5 and quenched after 0 and 30 minutes. In addition, negative control incubations were performed for 60 minutes in the absence of NADPH to assess chemical stability.
(§3) Analysis of supernatants from each time interval was conducted for each compound prepared in Examples 1-5 by LC-MS analysis. Quantification of the disappearance on the parent drug was achieved by comparison of the sample response to that of a suitable standard curve constructed in 0.1 M phosphate buffer, pH 7.4. The standard curve ranged between ≦1% up to ≧100% of the dosing concentration.
(§4) The % turnover following 60 minutes of incubation was calculated by comparison of the parent concentration to that at 0 minutes. The % degradation was calculated in the same manner from the negative control incubations. Appearance of the parent drug and the hydroxymetabolites were also monitored at each time interval.

CYP2D6 = CYP2D6 (Homo sapiens, UniProt P10635); assay: Metabolic stability in the presence of CYP2D6 isozyme; format: in vitro ADME; parameters: purchased BD Gentest (Woburn, Mass.); conditions: 10 μm compound
Sequence of CYP2D6 (P10635 whole entry): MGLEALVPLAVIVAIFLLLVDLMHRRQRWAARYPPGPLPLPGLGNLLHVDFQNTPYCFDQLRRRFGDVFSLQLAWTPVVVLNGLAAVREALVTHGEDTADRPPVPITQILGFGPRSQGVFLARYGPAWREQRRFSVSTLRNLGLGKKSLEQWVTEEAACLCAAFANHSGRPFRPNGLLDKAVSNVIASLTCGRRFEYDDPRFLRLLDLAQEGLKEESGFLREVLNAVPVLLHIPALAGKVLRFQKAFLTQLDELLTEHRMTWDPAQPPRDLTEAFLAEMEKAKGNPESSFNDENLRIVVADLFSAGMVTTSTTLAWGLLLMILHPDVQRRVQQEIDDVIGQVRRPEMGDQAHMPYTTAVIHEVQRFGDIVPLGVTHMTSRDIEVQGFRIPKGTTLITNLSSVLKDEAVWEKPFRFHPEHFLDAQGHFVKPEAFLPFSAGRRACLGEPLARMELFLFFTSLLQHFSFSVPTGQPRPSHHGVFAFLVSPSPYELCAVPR
Description: (§5) The metabolic stability of each compound prepared in Examples 1-5 was assessed in the presence of CYP2D6 and CYP3A4 obtained from BD Gentest (Woburn, Mass.).
(§6) The metabolic stability of each compound prepared in Examples 1-5 was assessed in duplicate by incubation of 10 μm compound with recombinant human CYP2D6 and 3A4 using similar conditions to those in Example 9. Samples were removed for analysis at 0, 30 and 60 minutes and extracted with one volume of organic solvent. Appropriate controls were included. Quantification of the disappearance of the prodrug was conducted LC-MS. Appearance of metabolites was also monitored.

recombinant human CYP3A4 = target: T1, recombinant human CYP3A4 (Homo sapiens, UniProt P08684); assay: Metabolic stability in the presence of CYP3A4 isozyme; format: in vitro ADME; conditions: 10 μm compound
T1 construct: purchased BD Gentest (Woburn, Mass.)
T1 sequence (P08684 whole entry): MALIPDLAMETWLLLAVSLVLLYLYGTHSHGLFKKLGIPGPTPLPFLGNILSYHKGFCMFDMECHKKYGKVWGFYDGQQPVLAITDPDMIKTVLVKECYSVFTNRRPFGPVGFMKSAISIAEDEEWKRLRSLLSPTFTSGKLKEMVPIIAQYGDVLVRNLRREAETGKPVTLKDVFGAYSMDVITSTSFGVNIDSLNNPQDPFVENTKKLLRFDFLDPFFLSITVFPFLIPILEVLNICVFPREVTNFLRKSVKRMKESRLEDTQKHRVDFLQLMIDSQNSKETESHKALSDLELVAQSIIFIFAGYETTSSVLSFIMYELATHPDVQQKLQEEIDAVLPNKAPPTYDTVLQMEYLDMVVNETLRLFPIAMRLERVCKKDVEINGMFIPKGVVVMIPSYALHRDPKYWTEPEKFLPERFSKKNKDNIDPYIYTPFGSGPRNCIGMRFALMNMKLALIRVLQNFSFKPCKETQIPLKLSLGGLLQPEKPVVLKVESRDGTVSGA
Description: as §5, §6

[4] = Metabolic stability, microsomal incubations with ketoconazole (CYP3A4 inhibitor); format: in vitro ADME; conditions: 10 μM, 0.5 mg/mL microsomal protein
Description: as §1, §2, §3, §4

[5] = Stability testing in simulated intestinal fluids; conditions: 10 μM
[6] = Stability testing of prodrugs in rat plasma (elevated esterase activity); format: in vitro ADME, Sprague-Dawley rat; conditions: 10 μM, ca. 37° C.
Description: Sprague-Dawley rat plasma was obtained by collection into sodium EDTA as the anticoagulant, and was stored at ca −20° C. prior to use. Prior to use, the plasma defrosted and was spun at ca. 3000 rpm for 5 minutes to remove any precipitate. The pH of the plasma was adjusted to pH 7.4 by careful addition of NaH2PO4 buffer.
Plasma stability was assessed by incubation of 10 μM of each compound prepared in Examples 1-5 with rat plasma, in duplicate, at ca. 37° C. with shaking. Each compound prepared in Examples 1-5 was also incubated at 10 μM in PBS as a control for compound heat stability. Aliquots were removed at 0, 0.5, 1 and 2 hours and stored at −20° C. until analysis.
For analysis, plasma samples were extracted in 1 part acetonitrile and isolation of the supernatant. Analysis of each compound prepared in Examples 1-5 in plasma extracts was conducted by an LC-MS method at each time interval and quantification was achieved by comparison of the response due to the sample to that of a three point standard curve. Appearance of the parent drug and the hydroxymetabolites were also monitored at each time interval. The % degradation following incubation at each time point was calculated by comparison of the parent concentration to that at 0 minutes.

[7] = phosphate pH 6, incubation time 0 min
[8] = phosphate pH 6, incubation time 30 min
[9] = phosphate pH 6, incubation time 60 min
[10] = phosphate pH 6, incubation time 120 min

Compound | Loss of parent compound in simulated gastric fluid (%) ([1]; incubation time 0 min) | Loss of parent compound in simulated gastric fluid (%) ([1]; incubation time 30 min) | Loss of parent compound in simulated gastric fluid (%) ([1]; incubation time 60 min) | Loss of parent compound in simulated gastric fluid (%) ([1]; incubation time 120 min) | Loss of parent compound in human plasma (%) ([2]; incubation time 0 min) | Loss of parent compound in human plasma (%) ([2]; incubation time 30 min) | Loss of parent compound in human plasma (%) ([2]; incubation time 60 min) | Loss of parent compound in human plasma (%) ([2]; incubation time 120 min) | Loss of parent compound with no ketoconazole (%) ([3]; incubation time 30 min) | Loss of parent compound with no ketoconazole (%) ([3]; incubation time 60 min) | Loss of parent compound with CYP2D6 isozyme (%) (CYP2D6; incubation time 0 min) | Loss of parent compound with CYP2D6 isozyme (%) (CYP2D6; incubation time 30 min) | Loss of parent compound with CYP2D6 isozyme (%) (CYP2D6; incubation time 60 min) | Loss of parent compound with CYP3A4 isozyme (%) (recombinant human CYP3A4; incubation time 0 min) | Loss of parent compound with CYP3A4 isozyme (%) (recombinant human CYP3A4; incubation time 30 min) | Loss of parent compound with CYP3A4 isozyme (%) (recombinant human CYP3A4; incubation time 60 min) | Loss of parent compound with ketoconazole (%) ([4]; incubation time 30 min) | Loss of parent compound with ketoconazole (%) ([4]; incubation time 60 min) | Loss of parent compound in simulated intestinal fluid (%) [5, 7] | Loss of parent compound in simulated intestinal fluid (%) [5, 8] | other results
CCOP(=O)(OCC)N(C)CCCN1c2ccccc2CCc2ccccc21 [RIC-02, [3-(10,11-Dihydro-dibenzo[b,f]azepin-5-yl)-propyl]-methyl-phosphoramidic acid diethyl ester] | 0.00% | 49.94% | 74.67% | 93.12% | 0.00% | −.43% | 9.94% | 7.93% | 76.17% | 91.40% | 0.00% | 13.19% | 37.11% | 0.00% | 97.05% | 98.62% | −17.26% | 11.04% | 0.00% | 11.65% | Loss of parent compound in simulated intestinal fluid (%) [5, 9]: 7.83%; Loss of parent compound in simulated intestinal fluid (%) [5, 10]: 9.29%; Loss of parent compound in rat plasma (%) ([6]; incubation time 0 min): 0.00%; Loss of parent compound in rat plasma (%) ([6]; incubation time 30 min): 4.67%; Loss of parent compound in rat plasma (%) ([6]; incubation time 60 min): 11.01%; Loss of parent compound in rat plasma (%) ([6]; incubation time 120 min): 9.02%
CC(C)COC(=O)N(C)CCCN1c2ccccc2CCc2ccccc21 [RIC-5c, [3-(10,11-Dihydro-dibenzo[b,f]azepin-5-yl)-propyl]-methyl-carbamic acid isobutyl ester] | 0.00% | 70.64% | 82.77% | 98.11% | 0.00% | 5.11% | −1.48% | 25.82% | 54.01% | 76.36% | 0.00% | 43.71% | 70.07% | 0.00% | 72.07% | 90.69% | 6.36% | 19.49% | 0.00% | 1.05% | Loss of parent compound in simulated intestinal fluid (%) [5, 9]: 12.68%; Loss of parent compound in simulated intestinal fluid (%) [5, 10]: 21.78%; Loss of parent compound in rat plasma (%) ([6]; incubation time 0 min): 0.00%; Loss of parent compound in rat plasma (%) ([6]; incubation time 30 min): −14.69%; Loss of parent compound in rat plasma (%) ([6]; incubation time 60 min): −2.88%; Loss of parent compound in rat plasma (%) ([6]; incubation time 120 min): 33.40%
CCCOC(=O)N(C)CCCN1c2ccccc2CCc2ccccc21 [RIC-5b, [3-(10,11-Dihydro-dibenzo[b,f]azepin-5-yl)-propyl]-methyl-carbamic acid propyl ester] | 0.00% | 58.72% | 26.67% | 94.37% | 0.00% | 7.15% | 6.85% | 21.06% | 64.76% | 82.29% | 0.00% | 19.21% | 28.01% | 0.00% | 92.32% | 95.20% | 31.69% | 50.21% | 0.00% | 6.73% | Loss of parent compound in simulated intestinal fluid (%) [5, 9]: 13.57%; Loss of parent compound in simulated intestinal fluid (%) [5, 10]: 25.61%; Loss of parent compound in rat plasma (%) ([6]; incubation time 0 min): 0.00%; Loss of parent compound in rat plasma (%) ([6]; incubation time 30 min): 7.17%; Loss of parent compound in rat plasma (%) ([6]; incubation time 60 min): 8.34%; Loss of parent compound in rat plasma (%) ([6]; incubation time 120 min): 23.42%
